The record followed here is paper PMC8307506, “Identification of Dihydromyricetin and Metabolites in Serum and Brain Associated with Acute Anti-Ethanol Intoxicating Effects in Mice” (International Journal of Molecular Sciences, 2021).

“Also recorded” adds a separate entry of the source.

Series [1] is described as follows: Identification of DHM metabolites in serum and brain by UPLC-QqQ/MS. It counts as in vivo, mice. The conditions noted are these: for Detection of metabolite in brain samples: male and female mice 15 min post DHM IP 50 mg/kg; for Detection of metabolite in serum: mice, following DHM 50 mg/kg IP and PO. The procedure: Eight-week-old male and female C57BL/6J mice (Jackson’s Laboratories, Bar Harbor, ME, USA) were housed 4 mice to a cage (separated by sex) and maintained on 12-h light, 12-h dark cycles (lights on at 0700 h) in the animal facility at the Department of Animal Sciences, Rutgers University. Following 1-week acclimation, animals were given ad libitum access to water and a polyphenol-free diet (PFD; 3.82 kcal/g, 10% fat, 20% protein, 70% carbohydrate; D12450H; Research Diets, Inc., New Brunswick, NJ, USA) for at least 10 days. For PK studies, after an overnight fast, mice were administered 50 mg/kg DHM (dissolved in 0.9% saline with 10% DMSO) by either IP injection or oral gavage. Oral gavage was performed using single-use, sterile plastic feeding tubes for mice (20 ga × 30 mm; cat# FTP-20-30, Instech Laboratories, (Plymouth Meeting, PA, USA). Mice were deeply anesthetized with 5% isoflurane mixed with oxygen, and blood was collected by cardiac puncture. Following cardiac puncture, animals were exsanguinated and transcardial perfusion with 0.9% saline was performed to ensure blood removal from the brain tissue. Blood and brain samples were collected from a total of 85 mice at 0.25, 0.75, 1.5, 3, 6, 12, 24 h (3–4 mice for each sex and timepoint). Tissues were immediately homogenized with 0.2% formic acid at 1:2 (w/v), and frozen at −80 °C until analysis. Blood was centrifuged at 3000× g for 10 min at 4 °C to isolate serum. For efficacy studies, mice (n = 8/sex) were fasted at 5 h prior to Ethanol gavage 5 g/kg (37% Ethanol in water). DHM 50 mg/kg IP (dissolved in 0.9% saline with 10% DMSO) was administered at 0, 15, 45, 90 and 180 min prior to Ethanol oral gavage. Each mouse was tested at each time point 7 days apart over 6-week period. At the time of Ethanol gavage, mice were placed in oversized conical holders (L: 152 mm X W: 37 mm) and observed for ability to return upright upon being placed in a supine position. Duration of LORR was determined by ability to return upright 3 times within 30 s. To determine whether ethanol-induced tolerance developed, one week (Week 1; Baseline) prior to the 6-week repeated DHM dosing study all mice were oral dose with ethanol (5 g/kg) without any IP injection and LORR was measured. Mice were then re-tested in a similar fashion with oral ethanol 1 week after the DHM 6-week period (Week 8; Post). […] All animal studies were approved by the Institutional Animal Care and Use Committee of Rutgers University (Bello; PROTO999900014, OLAW #A3262-01, 15 March 2017) and complied with NIH Guide for the Care and Use of Laboratory Animals.
All serum samples were stored at −80 °C and conditioned to room temperature prior to analysis. An aliquot of 100 µL of serum, 20 µL 4M HCl, and 50 µL of internal standard (IS) solution (417 ng/mL isoquercetin in EtOAc) were combined in an Eppendorf tube. An aliquot of 500 µL of EtOAc was added and samples were vortexed for 30 s. Samples were then centrifuged at 3000× g for 2 min and the supernatant transferred to a glass vial. Samples were extracted 2 more times with EtOAc and the supernatant added to the corresponding vial containing 10 µL of 2% ascorbic acid in methanol (MeOH). Samples were then dried under vacuum, reconstituted with 100 µL of 45% MeOH in water with 0.1% formic acid (FA), centrifuged at 16,000× g for 10 min and transferred to an HPLC vial for analysis.
Whole brain samples were homogenized in FA. All brain homogenates were stored at −80 °C and conditioned to room temperature prior to analysis. An aliquot of 300 µL of brain homogenate was added to 50 µL IS solution (417 ng/mL in EtOAc) and 500 µL of EtOAc in an Eppendorf tube. Samples were then vortexed for 30 s and sonicated for 1 min. Samples were centrifuged for 2 min at 3000× g and the supernatant transferred to a glass vial with 10 µL of 2% ascorbic acid in methanol. Samples were extracted two more times with 500 µL EtOAc and the supernatant transferred to the corresponding vial and dried under vacuum. […]

Series [2] deals with T1, α5β3γ2 GABAA receptors (Homo sapiens, UniProt P18507+P28472+P31644).
T1 construct: expressed in transfected cells; host or cells: Xenopus oocytes (injected with cDNA)
T1 sequence (P31644 32-462): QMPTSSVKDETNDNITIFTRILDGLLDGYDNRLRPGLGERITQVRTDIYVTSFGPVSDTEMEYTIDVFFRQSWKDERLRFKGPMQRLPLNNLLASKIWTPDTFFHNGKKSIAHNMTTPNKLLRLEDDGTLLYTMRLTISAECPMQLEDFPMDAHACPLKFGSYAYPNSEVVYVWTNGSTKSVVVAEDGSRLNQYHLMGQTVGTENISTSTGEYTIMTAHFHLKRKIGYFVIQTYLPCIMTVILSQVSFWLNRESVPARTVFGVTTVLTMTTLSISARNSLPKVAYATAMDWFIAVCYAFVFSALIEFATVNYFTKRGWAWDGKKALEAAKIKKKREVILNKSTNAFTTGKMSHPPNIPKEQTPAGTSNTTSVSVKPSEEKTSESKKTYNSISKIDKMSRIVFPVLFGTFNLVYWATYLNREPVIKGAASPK
T1 sequence (P28472 26-473): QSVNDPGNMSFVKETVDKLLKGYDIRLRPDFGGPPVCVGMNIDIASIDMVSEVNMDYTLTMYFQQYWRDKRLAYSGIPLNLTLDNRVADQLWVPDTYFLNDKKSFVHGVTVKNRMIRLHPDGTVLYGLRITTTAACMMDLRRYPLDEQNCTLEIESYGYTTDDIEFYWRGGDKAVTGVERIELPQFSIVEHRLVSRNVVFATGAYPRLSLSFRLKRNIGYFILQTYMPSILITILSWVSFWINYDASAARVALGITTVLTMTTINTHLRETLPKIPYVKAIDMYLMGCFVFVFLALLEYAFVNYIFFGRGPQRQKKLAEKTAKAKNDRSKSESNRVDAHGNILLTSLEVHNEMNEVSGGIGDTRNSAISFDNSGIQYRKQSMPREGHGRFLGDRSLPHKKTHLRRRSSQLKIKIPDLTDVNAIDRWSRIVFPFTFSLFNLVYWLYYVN
T1 sequence (P18507 40-475): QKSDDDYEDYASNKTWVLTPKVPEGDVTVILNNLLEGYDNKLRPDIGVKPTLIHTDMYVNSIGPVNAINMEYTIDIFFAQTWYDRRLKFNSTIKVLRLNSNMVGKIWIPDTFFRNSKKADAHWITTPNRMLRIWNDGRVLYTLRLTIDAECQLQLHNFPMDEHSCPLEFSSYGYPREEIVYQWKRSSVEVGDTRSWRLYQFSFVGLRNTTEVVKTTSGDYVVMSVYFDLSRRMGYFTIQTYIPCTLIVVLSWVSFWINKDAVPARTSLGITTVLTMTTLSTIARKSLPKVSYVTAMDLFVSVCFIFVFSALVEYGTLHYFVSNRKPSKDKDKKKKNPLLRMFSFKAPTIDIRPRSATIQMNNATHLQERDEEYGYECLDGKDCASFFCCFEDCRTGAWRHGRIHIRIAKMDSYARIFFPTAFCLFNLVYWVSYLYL
The experiment in a line: Two-electrode voltage clamp electrophysiology in Xenopus oocytes in the presence of GABA. It is filed as cell-based. The conditions noted are these: compound 10 µM, GABA 10 µM. The procedure: Xenopus oocytes were stored in incubation media (pH 7.5), consisting of ND96 supplemented with 2 mM sodium pyruvate, […] gentamycin, and 10 mL heat inactivated HyClone horse serum. Stage 4 to 5 oocytes were injected with 40 nL of cDNA coding for α5, β3, and γ2 subunits in a ratio of 1:1:10, utilizing a Drummond Nanoject III. Injected oocytes were stored at 18 °C and used in electrophysiology studies within 2–7 days of injection.
Whole cell two-electrode voltage clamp (TEVC) recording were conducted on oocytes in the presence of GABA, according to previously reported methods. Oocytes were voltage clamped at a membrane potential of −70 mV. The oocyte recording chamber was continuously perfused with modified bath solution (MBS) with select compound (10 µM) and GABA (10 µM), with a final concentration of 1% DMSO [22, 44]. […] Oocytes were perfused at a rate of 3 mL/min. Electrophysiology recordings were conducted in triplicate compound for each compound. The change of GABAAR activity was determined by comparison of GABAAR potentiation to the EC20 with control saline in the presence of GABA.
Pharmacokinetic parameters were calculated using noncompartmental analysis. Elimination half-life (T1/2) was calculated with R software from the linear regression of the terminal phase of the log serum concentration-time curve. The AUC0→24 was calculated with OriginLab software by trapezoidal analysis of the serum concentration-time plot. Cmax and Tmax were determined directly from observed data. Data are expressed as mean ± SEM. Statistical significance between AUC0→24 among test groups was calculated with an independent t-test (GraphPad software, San Diego, CA, USA). Time to LORR was analyzed by repeated measured ANOVA. Tolerance was determined by mean split in LORR response and confirmed with paired t-test (Week 1 vs. Week 8). Statistical significance of serum concentrations for individual time points was calculated using a two-way analysis of variance (ANOVA) analysis. Post hoc Bonferroni tests were performed when justified. Statistical significance of electrophysiology results compound GABAergic modulation was determined using a paired t-test (Vehicle control vs. Compound, GraphPad software, San Diego CA, USA). p < 0.05 was considered significant.
On the technique in general: In two-electrode clamp one electrode senses voltage and the other passes current.

As for `COc1c(O)cc([C@H]2Oc3cc(O)cc(O)c3C(=O)[C@@H]2O)cc1O` (racemic) [4′-Me-DHM, 4′-O-methyl-dihydromyricetin], in series [1], the “Detection of metabolite in brain samples” value was “trace levels” and the “Detection of metabolite in serum” value is “detected”. Besides, the GABAAR potentiation in series [2] is listed as −12.6%.
As to `COc1cc(C2Oc3cc(O)cc(O)c3C(=O)C2O)cc(O)c1O` (stereo not drawn) [3′-Me-DHM, 3′-O-methyl-dihydromyricetin], in series [1], the “Detection of metabolite in brain samples” value is reported as “trace levels” and the “Detection of metabolite in serum” value is given as “detected”.
For `O=C1c2c(O)cc(O)cc2OC(c2cc(O)cc(O)c2)C1O` (stereo not drawn) [4′-DeOH-DHM, 4′-dehydroxy-dihydromyricetin], the “Detection of metabolite in serum” value in series [1] is recorded as “detected; also recorded: trace levels”. Further, the GABAAR potentiation result is listed as “+5.2%” in series [2] and “+5.3 ± 2.0” in series [2] (mean ± SEM).
In the case of `COc1cc(C2Oc3cc(O)cc(OC4OC(C(=O)O)C(O)C(O)C4O)c3C(=O)C2O)cc(O)c1O` (stereo not drawn) [G-3′-Me-DHM, glucuronide-3′-O-methoxy-dihydromyricetin], the “Detection of metabolite in serum” value in series [1] is “detected”.
For the molecule `COc1c(O)cc(C2Oc3cc(O)cc(OC4OC(C(=O)O)C(O)C(O)C4O)c3C(=O)C2O)cc1O` (stereo not drawn) [G-4′-Me-DHM], the “Detection of metabolite in serum” value in series [1] is listed as “detected”.
In the case of `O=C1c2c(OC3OC(C(=O)O)C(O)C(O)C3O)cc(O)cc2OC(c2cc(O)c(O)c(O)c2)C1O` (stereo not drawn) [G-DHM, glucuronide-dihydromyricetin], the “Detection of metabolite in serum” value in series [1] was “detected”.
Consider “glucuronide-dehydroxy-dihydromyricetin [G-DeOH-DHM]”, for which the “Detection of metabolite in serum” value in series [1] was “detected”.
